# Laboratory results from patent EP4782444A1, “CRYSTAL FORM OF PYRIMIDINE ANILINE COMPOUND, PREPARATION METHOD, AND USE” (TYK Medicines, Inc., priority 2023, dated 2025).
# Like-named read-outs stand apart in the source and are kept apart here.
# Columns and labels:
# [1] = Pharmacokinetic study in rats, single oral gavage; settings: SD rats, 30 mpk; for AUC0-last / Cmax / T1/2 / Tmax: plasma, 30 mg/kg
# Procedure: SD rats received a single oral gavage administration of citrate crystalline form I, mesylate crystalline form I, and free base crystalline form I, respectively. Blood samples were collected at various time points to determine drug concentrations in rat plasma post administration of tested substance and calculate PK-related parameters.
# The prepared test sample solutions were analyzed by the analytical department of the present test facility using LC-MS/MS.
# Animals were fasted (≥10 h) with free access to water from the day before dosing. On the test day, rats were weighed respectively, marked at the tail, and blank blood samples were collected before administration. Blood was collected via tail vein.
# 0.1 mL of whole blood was collected into EDTA-Na2 anticoagulant tubes, inverted 3-4 times to mix well, centrifuged at 10,000 g, 4 °C for 5 min to separate plasma, and stored at - 80 °C until analysis. Blood was collected via tail vein.
# Plasma samples were analyzed by the analytical department of the test facility using LC-MS/MS.
# [2] = 37 °C
# physchem [3] = assay: physchem
# [4] = Solid-state stability study (HPLC and XRPD analysis); format: physicochemical
# physchem [5] = assay: physchem; remark: listed apart in the source
# [6] = day 0 (baseline before storage), mean of 3 parallel experiments
smiles,measurement,setting,value
C=CC(=O)Nc1cc(Nc2ncc(C(=O)OC(C)C)c(-c3cn(C)c4ccccc34)n2)c(OC)cc1N(C)[C@@H]1[C@@H]2CN(C)C[C@@H]21 [Free base crystalline form I],AUC0-last,[1],1122.05 ng·h/mL
same,Cmax,[1],126.5 ng/mL
same,T1/2,[1],2.19 h
same,Tmax,[1],4 h
same,Solubility,"[2]; FaSSIF, 0.5 h, 30 min",130 µg/mL
same,Solubility,"[2]; FaSSIF, 2 h, 120 min",130 µg/mL
same,Solubility,"[2]; FaSSIF, 24 h, 1440 min",180 µg/mL
same,Solubility,"[2]; FeSSIF, 0.5 h, 30 min",3530 µg/mL
same,Solubility,"[2]; FeSSIF, 2 h, 120 min",> 5020 µg/mL
same,Solubility,"[2]; FeSSIF, 24 h, 1440 min",> 5020 µg/mL
same,Solubility,"[2]; H2O, 0.5 h, 30 min",10 µg/mL
same,Solubility,"[2]; H2O, 2 h, 120 min",10 µg/mL
same,Solubility,"[2]; H2O, 24 h, 1440 min",10 µg/mL
same,Solubility,"[2]; SGF, 0.5 h, 30 min",>5000 µg/mL
same,Solubility,"[2]; SGF, 2 h, 120 min",> 5000 µg/mL
same,Solubility,"[2]; SGF, 24 h, 1440 min",> 5000 µg/mL
same,Solubility,"physchem [3]; 1,4-dioxane",< 270 µg/mL
same,Solubility,physchem [3]; acetone,2220 to 4440 µg/mL
same,Solubility,physchem [3]; acetonitrile,930 to 1010 µg/mL
same,Solubility,physchem [3]; cyclohexane,< 330 µg/mL
same,Solubility,physchem [3]; dce,61800 to 124000 µg/mL
same,Solubility,physchem [3]; dcm,> 107000 µg/mL
same,Solubility,physchem [3]; dmso,2600 to 2930 µg/mL
same,Solubility,physchem [3]; ethanol,< 300 µg/mL
same,Solubility,physchem [3]; ethyl acetate,< 290 µg/mL
same,Solubility,physchem [3]; heptane,< 300 µg/mL
same,Solubility,physchem [3]; ipac,< 300 µg/mL
same,Solubility,physchem [3]; isopropanol,< 350 µg/mL
same,Solubility,physchem [3]; mek,2780 to 4440 µg/mL
same,Solubility,physchem [3]; meoh,< 400 µg/mL
same,Solubility,physchem [3]; mtbe,< 330 µg/mL
same,Solubility,physchem [3]; nmp,18200 to 27400 µg/mL
same,Solubility,physchem [3]; thf,2550 to 3190 µg/mL
same,Solubility,physchem [3]; water,< 270 µg/mL
C=CC(=O)Nc1cc(Nc2ncc(C(=O)OC(C)C)c(-c3cn(C)c4ccccc34)n2)c(OC)cc1N(C)[C@@H]1[C@@H]2CN(C)C[C@@H]21 [Maleate crystalline form II],Solubility,"[2]; FaSSIF, 0.5 h, 30 min",> 5030 µg/mL
same,Solubility,"[2]; FaSSIF, 2 h, 120 min",> 5030 µg/mL
same,Solubility,"[2]; FaSSIF, 24 h, 1440 min",3450 µg/mL
same,Solubility,"[2]; FeSSIF, 0.5 h, 30 min",> 5010 µg/mL
same,Solubility,"[2]; FeSSIF, 2 h, 120 min",> 5010 µg/mL
same,Solubility,"[2]; FeSSIF, 24 h, 1440 min",> 5010 µg/mL
same,Solubility,"[2]; H2O, 0.5 h, 30 min",1640 µg/mL
same,Solubility,"[2]; H2O, 2 h, 120 min",1620 µg/mL
same,Solubility,"[2]; H2O, 24 h, 1440 min",1840 µg/mL
same,Solubility,"[2]; SGF, 0.5 h, 30 min",> 5010 µg/mL
same,Solubility,"[2]; SGF, 2 h, 120 min",> 5010 µg/mL
same,Solubility,"[2]; SGF, 24 h, 1440 min",> 5010 µg/mL
same,Appearance,"[4]; 25°C/60%RH, day 3",Unchanged
same,Crystalline Form,"[4]; 25°C/60%RH, day 3, XRPD",Unchanged
same,Purity %,"[4]; 25°C/60%RH, day 3, open vial",98.68%
same,Appearance,"[4]; 25°C/60%RH, day 7",Unchanged
same,Crystalline Form,"[4]; 25°C/60%RH, day 7, XRPD",Unchanged
same,Purity %,"[4]; 25°C/60%RH, day 7, open vial",98.66%
same,Appearance,"[4]; 25°C/95±5%RH, day 3",Unchanged
same,Crystalline Form,"[4]; 25°C/95±5%RH, day 3, XRPD",Unchanged
same,Purity %,"[4]; 25°C/95±5%RH, day 3, open vial",98.66%
same,Appearance,"[4]; 25°C/95±5%RH, day 7",Unchanged
same,Crystalline Form,"[4]; 25°C/95±5%RH, day 7, XRPD",Changed
same,Purity %,"[4]; 25°C/95±5%RH, day 7, open vial",98.67%
same,Appearance,"[4]; 40°C/75%RH, day 3",Unchanged
same,Crystalline Form,"[4]; 40°C/75%RH, day 3, XRPD",Unchanged
same,Purity %,"[4]; 40°C/75%RH, day 3, open vial",98.67%
same,Appearance,"[4]; 40°C/75%RH, day 7",Unchanged
same,Crystalline Form,"[4]; 40°C/75%RH, day 7, XRPD",Unchanged
same,Purity %,"[4]; 40°C/75%RH, day 7, open vial",98.64%
same,Appearance,"[4]; 60 °C, day 3",Unchanged
same,Crystalline Form,"[4]; 60 °C, day 3, XRPD",Unchanged
same,Purity %,"[4]; 60 °C, day 3, open vial",98.66%
same,Appearance,"[4]; 60 °C, day 7",Unchanged
same,Crystalline Form,"[4]; 60 °C, day 7, XRPD",Unchanged
same,Purity %,"[4]; 60 °C, day 7, open vial",98.68%
same,Appearance,"[4]; 80 °C, day 1",Unchanged
same,Crystalline Form,"[4]; 80 °C, day 1, XRPD",Unchanged
same,Purity %,"[4]; 80 °C, day 1, open vial",98.77%
same,Appearance,"[4]; 80 °C, day 3",Unchanged
same,Crystalline Form,"[4]; 80 °C, day 3, XRPD",Unchanged
same,Purity %,"[4]; 80 °C, day 3, open vial",98.66%
same,Crystalline Form,"[4]; after 7 days, 25 °C /90±5%RH",transformed into an unstable hydrate of maleate
same,Purity %,[4]; [6],98.83%
same,changes under other conditions,[4]; storage conditions other than 25 °C /90±5%RH,no significant changes were observed
C=CC(=O)Nc1cc(Nc2ncc(C(=O)OC(C)C)c(-c3cn(C)c4ccccc34)n2)c(OC)cc1N(C)[C@@H]1[C@@H]2CN(C)C[C@@H]21 [Mesylate crystalline form I],in vivo exposure in rats compared with free base crystalline form I,[1],higher
same,AUC0-last,[1],1811.31 ng·h/mL
same,Cmax,[1],222.5 ng/mL
same,T1/2,[1],2.54 h
same,Tmax,[1],3 h
same,Solubility,"[2]; FaSSIF, 0.5 h, 30 min",>5000 µg/mL
same,Solubility,"[2]; FaSSIF, 2 h, 120 min",> 5000 µg/mL
same,Solubility,"[2]; FaSSIF, 24 h, 1440 min",3410 µg/mL
same,Solubility,"[2]; H2O, 0.5 h, 30 min",>5000 µg/mL
same,Solubility,"[2]; H2O, 2 h, 120 min",> 5000 µg/mL
same,Solubility,"[2]; H2O, 24 h, 1440 min",> 5000 µg/mL
same,solubility at 0.5 h,physchem [5]; fessif,> 5010 µg/mL
same,solubility at 2 h,physchem [5]; fessif,> 5010 µg/mL
same,solubility at 24 h,physchem [5]; fessif,> 5010 µg/mL
same,solubility at 0.5 h,physchem [5]; sgf,> 5000 µg/mL
same,solubility at 2 h,physchem [5]; sgf,> 5000 µg/mL
same,solubility at 24 h,physchem [5]; sgf,> 5000 µg/mL
same,Appearance,"[4]; 25°C/60%RH, day 3",Unchanged
same,Crystalline Form,"[4]; 25°C/60%RH, day 3, XRPD",Unchanged
same,Purity %,"[4]; 25°C/60%RH, day 3, open vial",98.19%
same,Appearance,"[4]; 25°C/60%RH, day 7",Unchanged
same,Crystalline Form,"[4]; 25°C/60%RH, day 7, XRPD",Unchanged
same,Purity %,"[4]; 25°C/60%RH, day 7, open vial",98.24%
same,Appearance,"[4]; 25°C/95±5%RH, day 3",Unchanged
same,Crystalline Form,"[4]; 25°C/95±5%RH, day 3, XRPD",Unchanged
same,Purity %,"[4]; 25°C/95±5%RH, day 3, open vial",98.17%
same,Appearance,"[4]; 25°C/95±5%RH, day 7",Unchanged
same,Crystalline Form,"[4]; 25°C/95±5%RH, day 7, XRPD",Unchanged
same,Purity %,"[4]; 25°C/95±5%RH, day 7, open vial",98.20%
same,Appearance,"[4]; 40°C/75%RH, day 3",Unchanged
same,Crystalline Form,"[4]; 40°C/75%RH, day 3, XRPD",Unchanged
same,Purity %,"[4]; 40°C/75%RH, day 3, open vial",98.17%
same,Appearance,"[4]; 40°C/75%RH, day 7",Unchanged
same,Crystalline Form,"[4]; 40°C/75%RH, day 7, XRPD",Unchanged
same,Purity %,"[4]; 40°C/75%RH, day 7, open vial",98.16%
same,Appearance,"[4]; 60 °C, day 3",Unchanged
same,Crystalline Form,"[4]; 60 °C, day 3, XRPD",Unchanged
same,Purity %,"[4]; 60 °C, day 3, open vial",98.15%
same,Appearance,"[4]; 60 °C, day 7",Unchanged
same,Crystalline Form,"[4]; 60 °C, day 7, XRPD",Unchanged
same,Purity %,"[4]; 60 °C, day 7, open vial",98.12%
same,Appearance,"[4]; 80 °C, day 1",Unchanged
same,Crystalline Form,"[4]; 80 °C, day 1, XRPD",Unchanged
same,Purity %,"[4]; 80 °C, day 1, open vial",98.38%
same,Appearance,"[4]; 80 °C, day 3",Unchanged
same,Crystalline Form,"[4]; 80 °C, day 3, XRPD",Unchanged
same,Purity %,"[4]; 80 °C, day 3, open vial",98.24%
same,Purity %,[4]; [6],98.50%
same,Crystalline Form,[4]; under all five storage conditions,remained unchanged
